Results taken from patent publication US11111317B2, “Cordyceps militaris medium polysaccharide, method for separating and purifying same, and use thereof” (SOUTH CHINA NORMAL UNIVERSITY, priority 2018, dated 2021).

System: hyperuricemia model mice
Assay: Uric acid lowering ability in hyperuricemia model mice (xanthine + oteracil potassium)
Format: in vivo
Details: positive group 50 mg/kg by gavage, seven days, mouse serum
Description: Sixty male mice are randomly divided into six groups after one week's feeding, with 10 mice in each group, including a blank group, a model group, a high P1 dose group (400 mg/kg), a middle P1 dose group (200 mg/kg), a low P1 dose group (100 mg/kg) and a positive drug (50 mg/kg) control group. Every morning, the model group, the positive control group and the high, middle and low P1 dose groups are administered with 600 mg/kg of xanthine (ig) by gavage+100 mg/kg of oteracil potassium (ip) by intraperitoneal injection, fasting but water available for one hour before the model is made, and the blank group is administered with the same dose of normal saline. In the afternoon, the high, middle and low P1 dose groups are administered with the polysaccharide suspension by gavage; the positive control group is administered with 50 mg/kg of allopurinol suspension by gavage; the model group and the blank group are administered with the same volume of normal saline by gavage for seven consecutive days.
On the seventh day, 1 hour after administration in the afternoon, the mice are weighed and decapitated for blood collection. The blood is centrifuged at 3000 r/min for 10 min after being placed at room temperature for 40 min, and the upper layer of the serum is pipetted. Serum uric acid (UA), serum creatinine (CREA) and serum urea nitrogen (BUN) values are measured by kits to investigate the effects of the polysaccharide P1 on UA, CREA and BUN, as well as renal functions in the hyperuricemia model mice.

Oc1ncnc2[nH]ncc12 [Positive, allopurinol]
BUN (serum urea nitrogen): 6.99 ± 1.10 mmol/L | CREA (serum creatinine): 71.69 ± 8.43 µmol/L | UA (serum uric acid): 108.83 ± 6.53 µmol/L
